Reference: patent US12201640B2, “19-nor C3,3-disubstituted C21-n-pyrazolyl steroids and methods of use thereof” (Sage Therapeutics, Inc., priority 2013, dated 2025)
pEC50, pIC50: −log10 of the molar value.

Tests used:
GABAA receptor α1β2γ2 = molecular target: T1, GABAA receptor α1β2γ2 (Homo sapiens, UniProt P14867+P47870); assay: Patch clamp electrophysiology, Qpatch in Ltk cells; assay type: cell-based; conditions: 10 μM test article, GABA EC20 2 μM, read-out: GABA (α1β2γ2) Qpatch in Ltk, % efficacy at 10 μM
T1 construct: expressed in transfected cells
T1 sequence (P18507 40-475 partner, one chain of several): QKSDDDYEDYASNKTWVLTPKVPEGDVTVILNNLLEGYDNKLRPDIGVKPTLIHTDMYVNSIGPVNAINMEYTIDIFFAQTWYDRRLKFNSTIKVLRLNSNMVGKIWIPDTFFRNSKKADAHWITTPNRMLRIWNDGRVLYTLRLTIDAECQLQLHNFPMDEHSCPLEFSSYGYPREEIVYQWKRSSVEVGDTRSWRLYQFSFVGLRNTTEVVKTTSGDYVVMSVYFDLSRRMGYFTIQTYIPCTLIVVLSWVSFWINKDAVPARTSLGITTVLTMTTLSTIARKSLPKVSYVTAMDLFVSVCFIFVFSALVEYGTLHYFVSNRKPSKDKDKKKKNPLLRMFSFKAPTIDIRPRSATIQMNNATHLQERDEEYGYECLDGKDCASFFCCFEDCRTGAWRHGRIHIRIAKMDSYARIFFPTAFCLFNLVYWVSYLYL
Protocol: (§1) Patch Clamp Electrophysiology of Recombinant α1β2γ2 and α4β3δ GABAA Receptors
(§2) Cellular electrophysiology is used to measure the pharmacological properties of our GABAA receptor modulators in heterologous cell systems. Each compound is tested for its ability to affect GABA mediated currents at a submaximal agonist dose (GABA EC20=2 μM). LTK cells are stably transfected with the α1β2γ2 subunits of the GABA receptor and CHO cells are transiently transfected with the α4β3δ subunits via the Lipofecatamine method. Cells were passaged at a confluence of about 50-80% and then seeded onto 35 mm sterile culture dishes containing 2 ml culture complete medium without antibiotics or antimycotics. Confluent clusters of cells are electrically coupled (Pritchett et al., Science, 1988, 242, 1306-1308.). Because responses in distant cells are not adequately voltage clamped and because of uncertainties about the extent of coupling (Verdoorn et al., Neuron 1990, 4, 919-928.), cells were cultivated at a density that enables the recording of single cells (without visible connections to other cells).
(§3) Whole cell currents were measured with HEKA EPC-10 amplifiers using PatchMaster software or by using the high throughput QPatch platform (Sophion). Bath solution for all experiments contained (in mM): NaCl 137 mM, KCl 4 mM, CaCl2 1.8 mM, MgCl2 1 mM, HEPES 10 mM, D-Glucose 10 mM, pH (NaOH) 7.4. In some cases 0.005% cremophor was also added. Intracellular (pipette) solution contained: KCl 130 mM, MgCl2 1 mM, Mg-ATP 5 mM, HEPES 10 mM, EGTA 5 mM, pH 7.2. During experiments, cells and solutions were maintained at room temperature (19° C.-30° C.). For manual patch clamp recordings, cell culture dishes were placed on the dish holder of the microscope and continuously perfused (1 ml/min) with bath solution. After formation of a Gigaohm seal between the patch electrodes and the cell (pipette resistance range: 2.5 MΩ-6.0 MΩ; seal resistance range: >1 GΩ) the cell membrane across the pipette tip was ruptured to assure electrical access to the cell interior (whole-cell patch-configuration). For experiments using the QPatch system, cells were transferred as suspension to the QPatch system in the bath solution and automated whole cell recordings were performed.
(§4) Cells were voltage clamped at a holding potential of −80 mV. For the analysis of test articles, GABA receptors were stimulated by 2 μM GABA after sequential pre-incubation of increasing concentrations of the test article. Pre-incubation duration was 30 s and the duration of the GABA stimulus was 2 s. Test articles were dissolved in DMSO to form stock solutions (10 mM). Test articles were diluted to 0.01, 0.1, 1, and 10 μM in bath solution. All concentrations of test articles were tested on each cell. The relative percentage potentiation was defined as the peak amplitude in response to GABA EC20 in the presence of the test article divided by the peak amplitude in response to GABA EC20 alone, multiplied by 100.

[1] = molecular target: [35S]-TBPS binding, rat brain cortical membranes (GABA receptor complex); assay: Steroid inhibition of [35S]-TBPS binding; conditions: 3 nM [35S]-TBPS, 5 μM GABA
Protocol: Steroid Inhibition of TBPS Binding
[35S]-t-Butylbicyclophosphorothionate (TBPS) binding assays using rat brain cortical membranes in the presence of 5 μM GABA has been described (Gee et al, J. Pharmacol. Exp. Ther. 1987, 241, 346-353; Hawkinson et al, Mol. Pharmacol. 1994, 46, 977-985; Lewin, A. H et al., Mol. Pharmacol. 1989, 35, 189-194).
Briefly, cortices are rapidly removed following decapitation of carbon dioxide-anesthetized Sprague-Dawley rats (200-250 g). The cortices are homogenized in 10 volumes of ice-cold 0.32 M sucrose using a glass/teflon homogenizer and centrifuged at 1500×g for 10 min at 4° C. The resultant supernatants are centrifuged at 10,000×g for 20 min at 4° C. to obtain the P2 pellets. The P2 pellets are resuspended in 200 mM NaCl/50 mM Na-K phosphate pH 7.4 buffer and centrifuged at 10,000×g for 10 min at 4° C. This washing procedure is repeated twice and the pellets are resuspended in 10 volumes of buffer. Aliquots (100 μL) of the membrane suspensions are incubated with 3 nM [^35S]-TBPS and 5 μL aliquots of test drug dissolved in dimethyl sulfoxide (DMSO) (final 0.5%) in the presence of 5 μM GABA. The incubation is brought to a final volume of 1.0 mL with buffer. Nonspecific binding is determined in the presence of 2 μM unlabeled TBPS and ranged from 15 to 25%. Following a 90 min incubation at room temp, the assays are terminated by filtration through glass fiber filters (Schleicher and Schuell No. 32) using a cell harvester (Brandel) and rinsed three times with ice-cold buffer. Filter bound radioactivity is measured by liquid scintillation spectrometry. Non-linear curve fitting of the overall data for each drug averaged for each concentration is done using Prism (GraphPad). […] The concentration of test compound producing 50% inhibition (IC50) of specific binding and the maximal extent of inhibition (Imax) are determined for the individual experiments with the same model used for the overall data and then the means±SEM.s of the individual experiments are calculated.
Various compounds are or can be screened to determine their potential as modulators of [^35S]-TBPS binding in vitro. These assays are or can be performed in accordance with the above discussed procedures.

GABAA-R = molecular target: T2, GABAA-R (Homo sapiens, UniProt P14867+P47870); assay: Electrophysiological evaluation at GABAA-R (Table 2); assay type: cell-based; conditions: GABAA-R electrophysiology; for pEC50: read-out: EC50
T2 sequence (P14867 1-456): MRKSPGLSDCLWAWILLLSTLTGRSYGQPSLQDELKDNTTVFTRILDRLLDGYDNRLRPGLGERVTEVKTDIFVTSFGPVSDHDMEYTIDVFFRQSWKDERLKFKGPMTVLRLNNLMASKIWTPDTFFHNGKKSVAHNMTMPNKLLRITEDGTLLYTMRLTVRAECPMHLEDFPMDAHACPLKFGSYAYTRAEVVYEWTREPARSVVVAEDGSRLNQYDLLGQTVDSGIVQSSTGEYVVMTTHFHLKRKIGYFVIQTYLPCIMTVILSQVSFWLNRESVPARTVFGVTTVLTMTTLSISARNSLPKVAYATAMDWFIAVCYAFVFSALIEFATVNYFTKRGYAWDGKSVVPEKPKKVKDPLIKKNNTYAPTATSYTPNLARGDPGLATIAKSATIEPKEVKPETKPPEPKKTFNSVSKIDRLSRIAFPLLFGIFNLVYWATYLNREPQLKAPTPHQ
T2 sequence (P47870 1-512): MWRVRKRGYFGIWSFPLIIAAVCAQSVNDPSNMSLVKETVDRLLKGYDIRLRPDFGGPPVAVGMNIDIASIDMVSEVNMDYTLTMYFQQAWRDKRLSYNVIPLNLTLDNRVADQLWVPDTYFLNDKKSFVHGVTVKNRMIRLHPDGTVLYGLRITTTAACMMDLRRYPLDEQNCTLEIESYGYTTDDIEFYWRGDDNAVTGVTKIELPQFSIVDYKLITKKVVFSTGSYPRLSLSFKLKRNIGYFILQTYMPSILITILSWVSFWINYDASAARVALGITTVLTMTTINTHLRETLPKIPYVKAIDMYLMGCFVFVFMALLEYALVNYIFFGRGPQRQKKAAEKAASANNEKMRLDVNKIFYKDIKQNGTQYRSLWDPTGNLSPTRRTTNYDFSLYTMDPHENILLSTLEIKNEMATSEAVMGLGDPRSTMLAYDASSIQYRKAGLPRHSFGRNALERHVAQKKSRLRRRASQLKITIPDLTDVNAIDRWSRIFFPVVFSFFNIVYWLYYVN
Protocol: as §1, §2, §3, §4

GABAA receptor α4β3δ = molecular target: T3, GABAA receptor α4β3δ (Homo sapiens, UniProt P28472+P48169); assay: Patch clamp electrophysiology, manual patch in CHO cells; assay type: cell-based; conditions: 10 μM test article, GABA EC20 2 μM, read-out: GABA (α4β3δ) Manual patch in CHO, % efficacy at 10 μM
T3 construct: expressed in transfected cells; host or cells: CHO cells (transient, lipofection)
T3 sequence (P48169 36-554): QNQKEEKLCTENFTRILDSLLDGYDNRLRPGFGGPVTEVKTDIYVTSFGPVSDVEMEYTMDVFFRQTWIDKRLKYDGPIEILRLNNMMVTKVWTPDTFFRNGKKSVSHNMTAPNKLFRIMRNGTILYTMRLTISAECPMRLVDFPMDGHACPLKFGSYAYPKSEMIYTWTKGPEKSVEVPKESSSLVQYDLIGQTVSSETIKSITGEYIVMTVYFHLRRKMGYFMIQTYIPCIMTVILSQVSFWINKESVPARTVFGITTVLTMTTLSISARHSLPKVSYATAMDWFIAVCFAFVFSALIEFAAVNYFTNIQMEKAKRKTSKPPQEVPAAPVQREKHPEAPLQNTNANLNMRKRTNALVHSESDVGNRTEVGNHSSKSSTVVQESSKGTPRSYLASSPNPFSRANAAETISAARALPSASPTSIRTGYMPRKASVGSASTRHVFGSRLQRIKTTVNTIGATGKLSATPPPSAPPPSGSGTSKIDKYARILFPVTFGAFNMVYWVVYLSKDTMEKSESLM
T3 sequence (P28472 26-473): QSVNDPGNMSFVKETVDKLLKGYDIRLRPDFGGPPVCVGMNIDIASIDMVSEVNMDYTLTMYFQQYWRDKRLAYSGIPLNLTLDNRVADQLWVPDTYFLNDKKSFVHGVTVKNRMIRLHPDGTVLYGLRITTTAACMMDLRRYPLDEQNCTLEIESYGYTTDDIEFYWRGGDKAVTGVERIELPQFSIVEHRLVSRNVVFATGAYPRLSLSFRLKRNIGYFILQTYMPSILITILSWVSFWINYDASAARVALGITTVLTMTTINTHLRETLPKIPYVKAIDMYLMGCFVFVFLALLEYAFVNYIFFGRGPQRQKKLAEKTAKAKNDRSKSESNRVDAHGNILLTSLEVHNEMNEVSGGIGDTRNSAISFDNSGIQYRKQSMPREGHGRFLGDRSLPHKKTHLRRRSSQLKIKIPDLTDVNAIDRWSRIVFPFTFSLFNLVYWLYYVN
T3 sequence (O14764 25-452 partner): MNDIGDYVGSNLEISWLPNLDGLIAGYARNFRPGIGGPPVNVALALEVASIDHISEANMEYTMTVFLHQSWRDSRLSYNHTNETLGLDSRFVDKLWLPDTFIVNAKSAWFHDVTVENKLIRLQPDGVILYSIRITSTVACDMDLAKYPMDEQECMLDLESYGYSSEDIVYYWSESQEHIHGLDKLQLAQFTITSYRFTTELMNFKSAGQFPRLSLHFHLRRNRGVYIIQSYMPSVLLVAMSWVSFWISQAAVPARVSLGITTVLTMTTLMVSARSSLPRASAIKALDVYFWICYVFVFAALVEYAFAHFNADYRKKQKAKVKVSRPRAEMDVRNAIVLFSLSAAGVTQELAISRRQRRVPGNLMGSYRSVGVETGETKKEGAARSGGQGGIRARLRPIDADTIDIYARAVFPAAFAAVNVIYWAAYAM
Protocol: as §1, §2, §3, §4

Compound	Emax at 10 µM (GABAA receptor α1β2γ2) [%]	pIC50 [1]	Emax (GABAA-R) [%]	pEC50 (GABAA-R)	Emax at 10 µM (GABAA receptor α4β3δ) [%]
Cc1ccn(CC(=O)[C@H]2CC[C@H]3[C@@H]4CC[C@@H]5C[C@](C)(O)CC[C@@H]5[C@H]4CC[C@]23C)n1 [SA-11]	> 500	7.30 to 8.00	500 to 1000	5.70 to 6.00	
C[C@@]1(O)CC[C@H]2[C@H](CC[C@@H]3[C@@H]2CC[C@]2(C)[C@@H](C(=O)Cn4cc(Cl)cn4)CC[C@@H]32)C1 [SA-7]	> 500	7.30 to 8.00	0 to 500	5.70 to 6.00	> 500
C[C@]12CC[C@H]3[C@@H](CC[C@@H]4C[C@@](O)(CF)CC[C@@H]43)[C@@H]1CC[C@@H]2C(=O)Cn1cc(C#N)cn1 [SA-32]	> 500	7.30 to 8.00			> 500
C[C@@]1(O)CC[C@H]2[C@@H](CC[C@@H]3[C@@H]2CC[C@]2(C)[C@@H](C(=O)Cn4cc(C#N)cn4)CC[C@@H]32)C1 [SB-2]	100 to 500				100 to 500
C[C@@]1(O)CC[C@H]2[C@H](CC[C@@H]3[C@@H]2CC[C@]2(C)[C@@H](C(=O)Cn4nccc4C(F)(F)F)CC[C@@H]32)C1 [SA-2]	> 500	7.00 to 7.30	500 to 1000	< 5.70	
C[C@@]1(O)CC[C@H]2[C@@H](CC[C@@H]3[C@@H]2CC[C@]2(C)[C@@H](C(=O)Cn4cccn4)CC[C@@H]32)C1 [SB-1]	100 to 500	6.30 to 7.00			100 to 500
C[C@@]1(O)CC[C@H]2[C@H](CC[C@@H]3[C@@H]2CC[C@]2(C)[C@@H](C(=O)Cn4ccc(C(F)(F)F)n4)CC[C@@H]32)C1 [SA-1]	> 500	> 8.00	500 to 1000	5.70 to 6.00	
C[C@@]1(O)CC[C@H]2[C@H](CC[C@@H]3[C@@H]2CC[C@]2(C)[C@@H](C(=O)Cn4cc(Br)cn4)CC[C@@H]32)C1 [SA-9]	100 to 500	7.30 to 8.00	0 to 500	6.30 to 7.00	> 500
COC[C@@]1(O)CC[C@H]2[C@H](CC[C@@H]3[C@@H]2CC[C@]2(C)[C@@H](C(=O)Cn4cc(C#N)cn4)CC[C@@H]32)C1 [SA-24]	> 500	7.30 to 8.00			> 500
C[C@@]1(O)CC[C@H]2[C@H](CC[C@@H]3[C@@H]2CC[C@]2(C)[C@@H](C(=O)Cn4cc([N+](=O)[O-])cn4)CC[C@@H]32)C1 [SA-8]	100 to 500	7.30 to 8.00	0 to 500	5.70 to 6.00	
Cc1ccnn1CC(=O)[C@H]1CC[C@H]2[C@@H]3CC[C@@H]4C[C@](C)(O)CC[C@@H]4[C@H]3CC[C@]12C [SA-10]	100 to 500	7.00 to 7.30	0 to 500	< 5.70	
C[C@@]1(O)CC[C@@H]2[C@H]3CC[C@]4(C)[C@@H](C(=O)Cn5cc(C#N)cn5)CC[C@H]4[C@@H]3C[C@@H](F)[C@H]2C1 [SB-11]	100 to 500				> 500
C[C@@]1(O)CC[C@@H]2[C@H]3CC[C@]4(C)[C@@H](C(=O)Cn5cc(S(C)(=O)=O)cn5)CC[C@H]4[C@@H]3C[C@@H](F)[C@H]2C1 [SB-15]	100 to 500				> 500
C[C@@]1(O)CC[C@@H]2[C@H]3CC[C@]4(C)[C@@H](C(=O)Cn5cccn5)CC[C@H]4[C@@H]3C[C@@H](F)[C@H]2C1 [SB-10]	100 to 500	6.30 to 7.00			100 to 500
CC(=O)c1ccn(CC(=O)[C@H]2CC[C@H]3[C@@H]4CC[C@@H]5C[C@](C)(O)CC[C@@H]5[C@H]4CC[C@]23C)n1 [SA-5]	> 500	> 8.00		< 5.70	
COC[C@@]1(O)CC[C@H]2[C@@H](CC[C@@H]3[C@@H]2CC[C@]2(C)[C@@H](C(=O)Cn4cc(C#N)cn4)CC[C@@H]32)C1 [SB-5]	> 500	7.30 to 8.00			100 to 500
